The subject of series [1] is HL-60. Put plainly: Cytotoxicity against human HL60 cells after 72 hrs by MTT assay. The class given is functional, cell-based. Particulars: HL-60, 72 h.
A short description of series [2]: Cytotoxicity against human PBMC assessed as cell viability at 30 uM after 24 hrs by MTT assay relative to control. The class given is cell-based. The note with it: PBMC (peripheral blood mononuclear cells), read-out: Activity.
Series [3] deals with HL-60. Put plainly: Cytotoxicity against human HL60 cells assessed as cell viability at 30 uM after 24 hrs by MTT assay relative to control. The class given is functional. Particulars: HL-60, 24 h, read-out: Activity.
Series [4] concerns HL-60. Nature of the series: Cytotoxicity against human HL60 cells at 3 to 60 uM after 24 hrs by MTT assay. The class given is functional, cell-based.
The test system of series [5] is PBMC. Put plainly: Cytotoxicity against human PBMC at 3 to 60 uM after 24 hrs by MTT assay. The class given is cell-based.
A short description of series [6]: Cytotoxicity against human PBMC assessed as cell viability at 10 uM after 24 hrs by MTT assay relative to control. The class given is cell-based. The note with it: PBMC (peripheral blood mononuclear cells), read-out: Activity.
In series [7] the test system is HL-60. Put plainly: Cytotoxicity against human HL60 cells assessed as cell viability at 10 uM after 24 hrs by MTT assay relative to control. The class given is functional. The note with it: HL-60, 24 h, read-out: Activity.

Molecules are shown by their SMILES. Calls of active or inactive are those of the source. The rule behind the calls is not given here.

This passage reports IC50, viability and Activity results from ChEMBL document CHEMBL2046399, “Effect of C-ring modifications on the cytotoxicity of spirostan saponins and related glycosides” (Bioorg Med Chem, 2012).

In the case of `CO[C@H]1C[C@H]2[C@@H](CC[C@H]3C[C@@H](O[C@@H]4O[C@H](CO)[C@@H](O[C@@H]5O[C@@H](C)[C@H](O)[C@@H](O)[C@H]5O)[C@H](O)[C@H]4O[C@@H]4O[C@@H](C)[C@H](O)[C@@H](O)[C@H]4O)CC[C@@]32C)[C@@H]2C[C@@H]3O[C@]4(CC[C@@H](C)CO4)[C@@H](C)[C@@H]3[C@@]12C`, the IC50 in series [1] amounted to 31.5 µM.

As for `C=C1C[C@H]2[C@@H](CC[C@H]3C[C@@H](O[C@@H]4O[C@H](CO)[C@@H](O[C@@H]5O[C@@H](C)[C@H](O)[C@@H](O)[C@H]5O)[C@H](O)[C@H]4O[C@@H]4O[C@@H](C)[C@H](O)[C@@H](O)[C@H]4O)CC[C@@]32C)[C@@H]2C[C@@H]3O[C@]4(CC[C@@H](C)CO4)[C@@H](C)[C@@H]3[C@@]12C`, the IC50 in series [1] is 9.7 µM. In addition, the viability at 24 h, 30 µM in series [2] turned out to be 64.2%. For the same compound, in series [3], the viability at 30 µM came out at 23%.

In series [1], `CO[C@@H]1C[C@H]2[C@@H](CC[C@H]3C[C@@H](O[C@@H]4O[C@H](COC(=O)C(C)(C)C)[C@@H](O)[C@H](OC(=O)C(C)(C)C)[C@H]4O)CC[C@@]32C)[C@@H]2C[C@@H]3O[C@]4(CC[C@@H](C)CO4)[C@@H](C)[C@@H]3[C@@]12C` returned an IC50 of 19.2 µM. Also, the outcome in series [4] was Active. For the same compound, the Activity result in series [5] is listed as “Toxic”.

In turn, `C[C@@H]1CC[C@@]2(OC1)O[C@H]1C[C@H]3[C@@H]4CC[C@H]5C[C@@H](O[C@@H]6O[C@H](COC(=O)C(C)(C)C)[C@@H](O)[C@H](OC(=O)C(C)(C)C)[C@H]6O)CC[C@]5(C)[C@H]4CC(=O)O[C@]3(C)[C@H]1[C@@H]2C` displayed an IC50 in series [1] of 9.9 µM. Moreover, the result in series [4] was Active. The Activity result in series [5] was “Toxic”.

As for `C=C1C[C@H]2[C@@H](CC[C@H]3C[C@@H](O[C@@H]4O[C@H](COC(=O)C(C)(C)C)[C@@H](O)[C@H](OC(=O)C(C)(C)C)[C@H]4O)CC[C@@]32C)[C@@H]2C[C@@H]3O[C@]4(CC[C@@H](C)CO4)[C@@H](C)[C@@H]3[C@@]12C`, half-maximal inhibition in series [1] (IC50) was put at 15.7 µM. Also, the result in series [4] was Active. The Activity result in series [5] is given as “Toxic”.

In series [1], `C[C@@H]1CC[C@@]2(OC1)O[C@H]1C[C@H]3[C@@H]4CC[C@H]5C[C@@H](O[C@@H]6O[C@H](CO)[C@@H](O[C@@H]7O[C@@H](C)[C@H](O)[C@@H](O)[C@H]7O)[C@H](O)[C@H]6O[C@@H]6O[C@@H](C)[C@H](O)[C@@H](O)[C@H]6O)CC[C@]5(C)C4=CC(=O)[C@]3(C)[C@H]1[C@@H]2C` showed an IC50 of 30.4 µM. In other words, the double-digit micromolar range.

For the compound `CO[C@@H]1C[C@H]2[C@@H](CC[C@H]3C[C@@H](O[C@@H]4O[C@H](CO)[C@@H](O[C@@H]5O[C@@H](C)[C@H](O)[C@@H](O)[C@H]5O)[C@H](O)[C@H]4O[C@@H]4O[C@@H](C)[C@H](O)[C@@H](O)[C@H]4O)CC[C@@]32C)[C@@H]2C[C@@H]3O[C@]4(CC[C@@H](C)CO4)[C@@H](C)[C@@H]3[C@@]12C`, the IC50 in series [1] is 21.8 µM.

The compound `C[C@@H]1CC[C@@]2(OC1)O[C@H]1C[C@H]3[C@@H]4CC[C@H]5C[C@@H](O[C@@H]6O[C@H](COC(=O)C(C)(C)C)[C@@H](O)[C@H](OC(=O)C(C)(C)C)[C@H]6O)CC[C@]5(C)[C@H]4CC[C@]3(C)[C@H]1[C@@H]2C` yielded an IC50 in series [1] of 8.9 µM. In addition, in series [4], the result was Active. For the same compound, the Activity entry in series [5] is on record as “Toxic”.

For the compound `C[C@@H]1CC[C@@]2(OC1)O[C@H]1C[C@H]3[C@@H]4CC[C@H]5C[C@@H](O[C@@H]6O[C@H](COC(=O)C(C)(C)C)[C@@H](O)[C@H](OC(=O)C(C)(C)C)[C@H]6O)CC[C@]5(C)C4=CC(=O)[C@]3(C)[C@H]1[C@@H]2C`, in series [1], it took 5.9 µM to reach half-maximal inhibition (IC50).

`C[C@@H]1CC[C@@]2(OC1)O[C@H]1C[C@@H]([C@@H]3CC[C@H]4C[C@@H](O[C@@H]5O[C@H](CO)[C@@H](O[C@@H]6O[C@@H](C)[C@H](O)[C@@H](O)[C@H]6O)[C@H](O)[C@H]5O[C@@H]5O[C@@H](C)[C@H](O)[C@@H](O)[C@H]5O)CC[C@]4(C)[C@H]3CC(=O)O)[C@](C)(O)[C@H]1[C@@H]2C` yielded an IC50 in series [1] greater than 100 µM.

In series [1], `C[C@@H]1CC[C@@]2(OC1)O[C@H]1C[C@H]3[C@@H]4CC[C@H]5C[C@@H](O[C@@H]6O[C@H](CO)[C@@H](O[C@@H]7O[C@@H](C)[C@H](O)[C@@H](O)[C@H]7O)[C@H](O)[C@H]6O[C@@H]6O[C@@H](C)[C@H](O)[C@@H](O)[C@H]6O)CC[C@]5(C)[C@H]4CC[C@]3(C)[C@H]1[C@@H]2C` gave an IC50 of 2.6 µM. In addition, the viability at 24 h, 10 µM in series [6] came out at 45%. Also, the viability at 10 µM in series [7] turned out to be 17%.

For the compound `CO[C@H]1C[C@H]2[C@@H](CC[C@H]3C[C@@H](O[C@@H]4O[C@H](COC(=O)C(C)(C)C)[C@@H](O)[C@H](OC(=O)C(C)(C)C)[C@H]4O)CC[C@@]32C)[C@@H]2C[C@@H]3O[C@]4(CC[C@@H](C)CO4)[C@@H](C)[C@@H]3[C@@]12C`, in series [1], 21.5 µM corresponded to half-maximal inhibition (IC50).
